Assay results published in patent publication US9708314B2, “Heterocyclic amide compound” (NISSAN CHEMICAL INDUSTRIES, LTD., priority 2013, dated 2017).

Experiments:
Assay type in all cases: in vivo
Veronica persica = assay: Test Example 4: herbicidal effect by application to foliage (diluvial soil, plastic box); details: for R: Application herbicide amount 320 g/ha; for R (Veronica persica) herbicidal effect: application to foliage, application herbicide amount 320 g/ha
Method in brief: (§1)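 Scores run from 0 (herbicidal ratio ≤5%) to 5 (≥90%, almost fully withered) and were assessed three weeks after foliar spraying. Seedlings had been raised for 14 days at 25-30° C in sterilized diluvial soil before treatment, with the emulsion diluted in water to the stated g/ha dose.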

Chenopodium album = assay: as above; details: for O: Application herbicide amount 320 g/ha; for O (Chenopodium album) herbicidal effect: application to foliage, application herbicide amount 320 g/ha
Method in brief: as §1

Apera spica-venti. = assay: as above; details: for L: Application herbicide amount 320 g/ha; for L (Apera spica-venti.) herbicidal effect: application to foliage, application herbicide amount 320 g/ha
Method in brief: as §1

Setaria viridis = assay: as above; details: for G: Application herbicide amount 320 g/ha; for G (Setaria viridis) herbicidal effect: application to foliage, application herbicide amount 320 g/ha
Method in brief: as §1

Lolium multiflorum Lam. = assay: as above; details: for K: Application herbicide amount 320 g/ha; for K (Lolium multiflorum Lam.) herbicidal effect: application to foliage, application herbicide amount 320 g/ha
Method in brief: as §1

[1] = tested on: Echinochloa crus-galli var. crus-galli; assay: as above; details: for H: Application herbicide amount 320 g/ha; for H (Echinochloa crus-galli var. crus-galli) herbicidal effect: application to foliage, application herbicide amount 320 g/ha
Method in brief: as §1

Digitaria ciliaris = assay: as above; details: for F: Application herbicide amount 320 g/ha; for F (Digitaria ciliaris) herbicidal effect: application to foliage, application herbicide amount 320 g/ha
Method in brief: as §1

Alopecurus myosuroides = assay: as above; details: for J: Application herbicide amount 320 g/ha; for J (Alopecurus myosuroides) herbicidal effect: application to foliage, application herbicide amount 320 g/ha
Method in brief: as §1

Abutilon theophrasti = assay: as above; details: for M: Application herbicide amount 320 g/ha; for M (Abutilon theophrasti) herbicidal effect: application to foliage, application herbicide amount 320 g/ha
Method in brief: as §1

Galium spurium = assay: as above; details: for Q: Application herbicide amount 320 g/ha; for Q (Galium spurium) herbicidal effect: application to foliage, application herbicide amount 320 g/ha
Method in brief: as §1

Avena fatua = assay: as above; details: for I: Application herbicide amount 320 g/ha; for I (Avena fatua) herbicidal effect: application to foliage, application herbicide amount 320 g/ha
Method in brief: as §1

Monochoria vaginalis = assay: Test Example 2: herbicidal activity, application during weed generation in submerged conditions; details: Eighteenth Table; application herbicide amount 320 g/ha
Method in brief: (§2)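 Alluvial soil in Wagner pots flooded to 4 cm water depth; seeds sown mixed, grown in greenhouse at 25–30 °C. At one- to two-leaf stage, emulsion diluted with water to the set rate (g/ha) was applied to the water surface. Effect scored 0–5 by herbicidal ratio three weeks later.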

Scirpus juncoides = assay: as above; details: Eighteenth Table; application herbicide amount 320 g/ha
Method in brief: as §2

[2] = tested on: Echinochloa oryzacola Vasing.; assay: as above; details: Eighteenth Table; application herbicide amount 320 g/ha
Method in brief: as §2

Glycine max = assay: Test Example 4: effect on crop by application to foliage (diluvial soil, plastic box); details: for c: Application herbicide amount 320 g/ha, effect on crop; for c (Glycine max) effect on crop: application to foliage, application herbicide amount 320 g/ha
Method in brief: as §1

[3] = tested on: directly sowed Oryza sativa; assay: as above; details: for d: Application herbicide amount 320 g/ha, effect on crop; for d (directly sowed Oryza sativa) effect on crop: application to foliage, application herbicide amount 320 g/ha
Method in brief: as §1

[4] = tested on: Beta vulgaris ssp. vulgaris; assay: as above; details: for f: Application herbicide amount 320 g/ha, effect on crop; for f (Beta vulgaris ssp. vulgaris) effect on crop: application to foliage, application herbicide amount 320 g/ha
Method in brief: as §1

Brassica campestris L. = assay: as above; details: for g: Application herbicide amount 320 g/ha, effect on crop; for g (Brassica campestris L.) effect on crop: application to foliage, application herbicide amount 320 g/ha
Method in brief: as §1

Triticum aestivum = assay: as above; details: for e: Application herbicide amount 320 g/ha, effect on crop; for e (Triticum aestivum) effect on crop: application to foliage, application herbicide amount 320 g/ha
Method in brief: as §1

Zea mays = assay: as above; details: for b: Application herbicide amount 320 g/ha, effect on crop; for b (Zea mays) effect on crop: application to foliage, application herbicide amount 320 g/ha
Method in brief: as §1

Cc1nnc(NC(=O)c2ccc(C(F)(F)F)n3c(SCC(C)C)nnc23)o1 [1-093]
R (Veronica persica): 4 (Herbicidal ratio of 70% or more and less than 90%) | O (Chenopodium album): 5 (Herbicidal ratio of 90% or more (almost completely withered)) | L (Apera spica-venti.): 1 (Herbicidal ratio of 5% or more and less than 20%) | G (Setaria viridis): 3 (Herbicidal ratio of 40% or more and less than 70%) | K (Lolium multiflorum Lam.): 1 (Herbicidal ratio of 5% or more and less than 20%) | H [1]: 5 (Herbicidal ratio of 90% or more (almost completely withered)) | F (Digitaria ciliaris): 5 (Herbicidal ratio of 90% or more (almost completely withered)) | J (Alopecurus myosuroides): 0 (Herbicidal ratio of 5% or less (almost no effect)) | M (Abutilon theophrasti): 4 (Herbicidal ratio of 70% or more and less than 90%) | Q (Galium spurium): 1 (Herbicidal ratio of 5% or more and less than 20%) | I (Avena fatua): 1 (Herbicidal ratio of 5% or more and less than 20%) | C (Monochoria vaginalis) herbicidal ratio grade (Monochoria vaginalis): 3 (Herbicidal ratio of 40% or more and less than 70%) | B (Scirpus juncoides) herbicidal ratio grade (Scirpus juncoides): 3 (Herbicidal ratio of 40% or more and less than 70%) | A (Echinochloa oryzicola Vasing.) herbicidal ratio grade [2]: 3 (Herbicidal ratio of 40% or more and less than 70%) | c (Glycine max): 4 (Herbicidal ratio of 70% or more and less than 90%) | d [3]: 3 (Herbicidal ratio of 40% or more and less than 70%) | f [4]: 5 (Herbicidal ratio of 90% or more (almost completely withered)) | g (Brassica campestris L.): 3 (Herbicidal ratio of 40% or more and less than 70%) | e (Triticum aestivum): 0 (Herbicidal ratio of 5% or less (almost no effect)) | b (Zea mays): 0 (Herbicidal ratio of 5% or less (almost no effect))

CC(C)Sc1nnc2c(C(=O)Nc3nnco3)ccc(C(F)(F)F)n12 [1-091]
R (Veronica persica): 5 (Herbicidal ratio of 90% or more (almost completely withered)) | O (Chenopodium album): 5 (Herbicidal ratio of 90% or more (almost completely withered)) | L (Apera spica-venti.): 3 (Herbicidal ratio of 40% or more and less than 70%) | G (Setaria viridis): 5 (Herbicidal ratio of 90% or more (almost completely withered)) | K (Lolium multiflorum Lam.): 3 (Herbicidal ratio of 40% or more and less than 70%) | H [1]: 5 (Herbicidal ratio of 90% or more (almost completely withered)) | F (Digitaria ciliaris): 5 (Herbicidal ratio of 90% or more (almost completely withered)) | J (Alopecurus myosuroides): 2 (Herbicidal ratio of 20% or more and less than 40%) | M (Abutilon theophrasti): 5 (Herbicidal ratio of 90% or more (almost completely withered)) | Q (Galium spurium): 4 (Herbicidal ratio of 70% or more and less than 90%) | I (Avena fatua): 4 (Herbicidal ratio of 70% or more and less than 90%) | C (Monochoria vaginalis) herbicidal ratio grade (Monochoria vaginalis): 5 (Herbicidal ratio of 90% or more (almost completely withered)) | B (Scirpus juncoides) herbicidal ratio grade (Scirpus juncoides): 5 (Herbicidal ratio of 90% or more (almost completely withered)) | A (Echinochloa oryzicola Vasing.) herbicidal ratio grade [2]: 5 (Herbicidal ratio of 90% or more (almost completely withered)) | c (Glycine max): 2 (Herbicidal ratio of 20% or more and less than 40%) | d [3]: 4 (Herbicidal ratio of 70% or more and less than 90%) | f [4]: 5 (Herbicidal ratio of 90% or more (almost completely withered)) | g (Brassica campestris L.): 5 (Herbicidal ratio of 90% or more (almost completely withered)) | e (Triticum aestivum): 3 (Herbicidal ratio of 40% or more and less than 70%) | b (Zea mays): 0 (Herbicidal ratio of 5% or less (almost no effect))

Cc1nnc(NC(=O)c2ccc(C(F)(F)F)n3c(-c4ccc(F)cc4)nnc23)o1 [1-044]
R (Veronica persica) herbicidal effect (Veronica persica): 5 (Herbicidal ratio of 90% or more (almost completely withered)) | O (Chenopodium album) herbicidal effect (Chenopodium album): 5 (Herbicidal ratio of 90% or more (almost completely withered)) | L (Apera spica-venti.) herbicidal effect (Apera spica-venti.): 4 (Herbicidal ratio of 70% or more and less than 90%) | G (Setaria viridis) herbicidal effect (Setaria viridis): 4 (Herbicidal ratio of 70% or more and less than 90%) | K (Lolium multiflorum Lam.) herbicidal effect (Lolium multiflorum Lam.): 2 (Herbicidal ratio of 20% or more and less than 40%) | H (Echinochloa crus-galli var. crus-galli) herbicidal effect [1]: 5 (Herbicidal ratio of 90% or more (almost completely withered)) | F (Digitaria ciliaris) herbicidal effect (Digitaria ciliaris): 4 (Herbicidal ratio of 70% or more and less than 90%) | J (Alopecurus myosuroides) herbicidal effect (Alopecurus myosuroides): 1 (Herbicidal ratio of 5% or more and less than 20%) | M (Abutilon theophrasti) herbicidal effect (Abutilon theophrasti): 5 (Herbicidal ratio of 90% or more (almost completely withered)) | Q (Galium spurium) herbicidal effect (Galium spurium): 3 (Herbicidal ratio of 40% or more and less than 70%) | I (Avena fatua) herbicidal effect (Avena fatua): 1 (Herbicidal ratio of 5% or more and less than 20%) | C (Monochoria vaginalis) herbicidal ratio grade (Monochoria vaginalis): 2 (Herbicidal ratio of 20% or more and less than 40%) | B (Scirpus juncoides) herbicidal ratio grade (Scirpus juncoides): 3 (Herbicidal ratio of 40% or more and less than 70%) | A (Echinochloa oryzicola Vasing.) herbicidal ratio grade [2]: 2 (Herbicidal ratio of 20% or more and less than 40%) | c (Glycine max) effect on crop (Glycine max): 0 (Herbicidal ratio of 5% or less (almost no effect)) | d (directly sowed Oryza sativa) effect on crop [3]: 3 (Herbicidal ratio of 40% or more and less than 70%) | f (Beta vulgaris ssp. vulgaris) effect on crop [4]: 5 (Herbicidal ratio of 90% or more (almost completely withered)) | g (Brassica campestris L.) effect on crop (Brassica campestris L.): 4 (Herbicidal ratio of 70% or more and less than 90%) | e (Triticum aestivum) effect on crop (Triticum aestivum): 0 (Herbicidal ratio of 5% or less (almost no effect)) | b (Zea mays) effect on crop (Zea mays): 0 (Herbicidal ratio of 5% or less (almost no effect))

Cc1nnc(NC(=O)c2ccc(C(F)(F)F)n3c(-c4ccccc4)nnc23)o1 [1-012]
R (Veronica persica) herbicidal effect (Veronica persica): 4 (Herbicidal ratio of 70% or more and less than 90%) | O (Chenopodium album) herbicidal effect (Chenopodium album): 5 (Herbicidal ratio of 90% or more (almost completely withered)) | L (Apera spica-venti.) herbicidal effect (Apera spica-venti.): 1 (Herbicidal ratio of 5% or more and less than 20%) | G (Setaria viridis) herbicidal effect (Setaria viridis): 4 (Herbicidal ratio of 70% or more and less than 90%) | K (Lolium multiflorum Lam.) herbicidal effect (Lolium multiflorum Lam.): 1 (Herbicidal ratio of 5% or more and less than 20%) | H (Echinochloa crus-galli var. crus-galli) herbicidal effect [1]: 4 (Herbicidal ratio of 70% or more and less than 90%) | F (Digitaria ciliaris) herbicidal effect (Digitaria ciliaris): 3 (Herbicidal ratio of 40% or more and less than 70%) | J (Alopecurus myosuroides) herbicidal effect (Alopecurus myosuroides): 0 (Herbicidal ratio of 5% or less (almost no effect)) | M (Abutilon theophrasti) herbicidal effect (Abutilon theophrasti): 3 (Herbicidal ratio of 40% or more and less than 70%) | Q (Galium spurium) herbicidal effect (Galium spurium): 2 (Herbicidal ratio of 20% or more and less than 40%) | I (Avena fatua) herbicidal effect (Avena fatua): 0 (Herbicidal ratio of 5% or less (almost no effect)) | C (Monochoria vaginalis) herbicidal ratio grade (Monochoria vaginalis): 2 (Herbicidal ratio of 20% or more and less than 40%) | B (Scirpus juncoides) herbicidal ratio grade (Scirpus juncoides): 2 (Herbicidal ratio of 20% or more and less than 40%) | A (Echinochloa oryzicola Vasing.) herbicidal ratio grade [2]: 2 (Herbicidal ratio of 20% or more and less than 40%) | c (Glycine max) effect on crop (Glycine max): 1 (Herbicidal ratio of 5% or more and less than 20%) | d (directly sowed Oryza sativa) effect on crop [3]: 2 (Herbicidal ratio of 20% or more and less than 40%) | f (Beta vulgaris ssp. vulgaris) effect on crop [4]: 3 (Herbicidal ratio of 40% or more and less than 70%) | g (Brassica campestris L.) effect on crop (Brassica campestris L.): 4 (Herbicidal ratio of 70% or more and less than 90%) | e (Triticum aestivum) effect on crop (Triticum aestivum): 0 (Herbicidal ratio of 5% or less (almost no effect)) | b (Zea mays) effect on crop (Zea mays): 0 (Herbicidal ratio of 5% or less (almost no effect))
